Data: US4439426A, “Semisynthetic macrolidic antibiotics, intermediate compounds for their preparation and related pharmaceutical compositions containing them” (priority 1981, dated 1984)
≈ marks a conversion by molar mass, not a printed value.

Key:
Type in all cases: cell-based
[1] = system: Streptococcus faecalis LRP 7; experiment: Bacteriostatic power in solid medium (MIC); settings: Enterococcus faecalis, LRP7; solid medium; read-out: Minimum inhibiting concentration
Source text: (§1) the bacteriostatic power, expressed as the minimum inhibiting concentration (MIC) against both aerobic and anaerobic, Gram positive and Gram negative, bacterial stocks: the related results are reported in the tables 2 and 3.

[2] = system: Haemophilus influenzae ATCC 19418 LRP 213; experiment: Bacteriostatic power in solid medium (MIC); settings: Haemophilus influenzae, ATCC19418, read-out: Minimum inhibiting concentration
Source text: as §1

[3] = system: Fusobacteriumnecrophroum ATCC 27852 LRP 210; experiment: Bacteriostatic power in solid medium (MIC); settings: solid medium; anaerobic; read-out: Minimum inhibiting concentration
Source text: as §1

[4] = system: Streptococcus pyogenes ATCC 8668 LRP 34; experiment: Bacteriostatic power in solid medium (MIC); settings: Streptococcus pyogenes, ATCC8668; solid medium; read-out: Minimum inhibiting concentration
Source text: as §1

[5] = system: Klelsiella pneumoniae LRP 54; experiment: Bacteriostatic power in solid medium (MIC); settings: solid medium; read-out: Minimum inhibiting concentration
Source text: as §1

[6] = system: Micrococcus luteus ATCC 9341 LRP 6; experiment: Bacteriostatic power in solid medium (MIC); settings: Micrococcus luteus, ATCC9341; solid medium; read-out: Minimum inhibiting concentration
Source text: as §1

[7] = system: Streptococcus pneumoniae ATCC 6303 LRP 52; experiment: Bacteriostatic power in solid medium (MIC); settings: Streptococcus pneumoniae, ATCC6303; solid medium; read-out: Minimum inhibiting concentration
Source text: as §1

[8] = system: Shigella sonnei LRP 5; experiment: Bacteriostatic power in solid medium (MIC); settings: LRP5, read-out: Minimum inhibiting concentration
Source text: as §1

[9] = system: Streptococcus pneumoniae ATCC 6303 LRP 53; experiment: Bacteriostatic power in solid medium (MIC); settings: Streptococcus pneumoniae, ATCC6303; solid medium; read-out: Minimum inhibiting concentration
Source text: as §1

[10] = system: Staphylococcus aureus ATCC 14154 LRP 78; experiment: Bacteriostatic power in solid medium (MIC); settings: Staphylococcus aureus, ATCC14154, read-out: Minimum inhibiting concentration
Source text: as §1

[11] = system: Pseudomonas aeruginosa LRP 9; experiment: Bacteriostatic power in solid medium (MIC); settings: Pseudomonas aeruginosa, LRP9; solid medium; read-out: Minimum inhibiting concentration
Source text: as §1

[12] = system: Streptococcus pyogenes ATCC 8668 LRP 197; experiment: Bacteriostatic power in solid medium (MIC); settings: Streptococcus pyogenes, ATCC8668; solid medium; read-out: Minimum inhibiting concentration
Source text: as §1

[13] = system: Corynebacterium diphteriae LRP 24; experiment: Bacteriostatic power in solid medium (MIC); settings: Corynebacterium, LRP24; solid medium; read-out: Minimum inhibiting concentration
Source text: as §1

[14] = system: Streptococcus pneumoniae ATCC 6303 LRP 35; experiment: Bacteriostatic power in solid medium (MIC); settings: Streptococcus pneumoniae, ATCC6303; solid medium; read-out: Minimum inhibiting concentration
Source text: as §1

[15] = system: Streptococcus faecalis subsp. zymogenes ATCC 12958 LRP 61; experiment: Bacteriostatic power in solid medium (MIC); settings: Enterococcus faecalis, ATCC12958; solid medium; read-out: Minimum inhibiting concentration
Source text: as §1

[16] = system: Micrococcus luteus ATCC 15957 LRP 193; experiment: Bacteriostatic power in solid medium (MIC); settings: Micrococcus luteus, ATCC15957; solid medium; Erythromycin resistant; read-out: Minimum inhibiting concentration
Source text: as §1

[17] = system: Mycoplasma hominis I ATCC 14027 LRP 211; experiment: Bacteriostatic power in solid medium (MIC); settings: Metamycoplasma hominis, ATCC14027; solid medium; read-out: Minimum inhibiting concentration
Source text: as §1

[18] = system: Bacillus subtilis LRP 25; experiment: Bacteriostatic power in solid medium (MIC); settings: Bacillus subtilis, LRP25; solid medium; read-out: Minimum inhibiting concentration
Source text: as §1

[19] = system: Acholeplasma laidlawii ATCC 23206 LRP 204; experiment: Bacteriostatic power in solid medium (MIC); settings: Acholeplasma laidlawii, ATCC23206; solid medium; read-out: Minimum inhibiting concentration
Source text: as §1

[20] = system: Staphylococcus aureus ATCC 6538P LRP 14; experiment: Bacteriostatic power in solid medium (MIC); settings: Staphylococcus aureus, ATCC6538P; solid medium; Penycilline resistant; read-out: Minimum inhibiting concentration
Source text: as §1

[21] = system: Bacteroides fragilis ATCC 23745 LRP 205; experiment: Bacteriostatic power in solid medium (MIC); settings: Bacteroides fragilis, ATCC23745; solid medium; anaerobic; read-out: Minimum inhibiting concentration
Source text: as §1

[22] = system: Proteus vulgaris ATCC 6380 LRP 13; experiment: Bacteriostatic power in solid medium (MIC); settings: Proteus vulgaris, ATCC6380; solid medium; read-out: Minimum inhibiting concentration
Source text: as §1

[23] = system: Staphylococcus aureus ATCC 6538P LRP 39; experiment: Bacteriostatic power in solid medium (MIC); settings: Staphylococcus aureus, ATCC6538P; solid medium; read-out: Minimum inhibiting concentration
Source text: as §1

[24] = system: Escherichia coli LRP 50; experiment: Bacteriostatic power in solid medium (MIC); settings: Escherichia coli, LRP50; solid medium; read-out: Minimum inhibiting concentration
Source text: as §1

[25] = system: Neisseria gonorrhoeae ATCC 19424 LRP 214; experiment: Bacteriostatic power in solid medium (MIC); settings: Neisseria gonorrhoeae, ATCC19424; solid medium; read-out: Minimum inhibiting concentration
Source text: as §1

[26] = system: Streptococcus pyogenes ATCC 8668 LRP 34; experiment: Bacteriostatic power in liquid medium (MIC); settings: Streptococcus pyogenes, ATCC8668; liquid medium; read-out: Minimum inhibiting concentration
Source text: as §1

[27] = system: Staphylococcus aureus ATCC 6538 P LRP 39; experiment: Bacteriostatic power in liquid medium (MIC); settings: Staphylococcus aureus, ATCC6538; liquid medium; read-out: Minimum inhibiting concentration
Source text: as §1

[28] = system: Corynebacterium diphteriae LRP 24; experiment: Bacteriostatic power in liquid medium (MIC); settings: Corynebacterium, LRP24; liquid medium; read-out: Minimum inhibiting concentration
Source text: as §1

[29] = system: Streptococcus pneumoniae ATCC 6303 LRP 35; experiment: Bacteriostatic power in liquid medium (MIC); settings: Streptococcus pneumoniae, ATCC6303; liquid medium; read-out: Minimum inhibiting concentration
Source text: as §1

[30] = system: Streptococcus faecalis subs. zymogenes ATCC 12958 LRP 61; experiment: Bacteriostatic power in liquid medium (MIC); settings: Enterococcus faecalis, ATCC12958; liquid medium; read-out: Minimum inhibiting concentration
Source text: as §1

[31] = system: Salmonella typhy LRP 8; experiment: microbe, parasite or virus in culture; settings: LRP8, solid medium, read-out: Minimum inhibiting concentration
Source text: as §1

[32] = system: Clostridium perfrigens ATCC 3624 LRP 206; experiment: microbe, parasite or virus in culture; settings: ATCC3624, solid medium, anaerobic, read-out: Minimum inhibiting concentration
Source text: as §1

[33] = system: Streptococcus pyogenes ATCC 8668 LRP 34; experiment: Minimum bactericidal concentration (MBC)
Source text: (§2) the bacterial power, expressed as the minimum bactericidal power (MBC) against some Gram positive aerobic stocks (table 5).

[34] = system: Staphylococcus aureus ATCC 6538 P LRP 39; experiment: Minimum bactericidal concentration (MBC)
Source text: as §2

[35] = system: Corynebacterium diphteriae LRP 24; experiment: Minimum bactericidal concentration (MBC)
Source text: as §2

[36] = system: Streptococcus pneumoniae ATCC 6303 LRP 35; experiment: Minimum bactericidal concentration (MBC)
Source text: as §2

[37] = system: Streptococcus faecalis subs. zymogenes LRP 61; experiment: Minimum bactericidal concentration (MBC)
Source text: as §2

Compound: CC[C@H]1OC(=O)[C@H](C)[C@@H](O[C@H]2C[C@@](C)(OC)[C@@H](O)[C@H](C)O2)[C@H](C)[C@@H](O[C@@H]2O[C@H](C)C[C@H](N(C)C)[C@H]2O)[C@](C)(O)C[C@@H](C)C(=O)[C@H](C)[C@@H](O)[C@H]1C [Erythromycin B, reference compound]
- MIC [1]: 0.195 µg/mL (≈ 0.272 µM)
- MIC [2]: 6.25 µg/mL (≈ 8.71 µM)
- MIC [3]: 6.25 µg/mL (≈ 8.71 µM)
- MIC [4]: 0.024 µg/mL (≈ 0.0334 µM)
- MIC [5]: 25 µg/mL (≈ 34.8 µM)
- MIC [6]: 0.006 µg/mL (≈ 0.00836 µM)
- MIC [7]: 0.024 µg/mL (≈ 0.0334 µM)
- MIC [8]: 25 µg/mL (≈ 34.8 µM)
- MIC [9]: 0.024 µg/mL (≈ 0.0334 µM)
- MIC [10]: 25 µg/mL (≈ 34.8 µM)
- MIC [11]: 25 µg/mL (≈ 34.8 µM)
- MIC [12]: 0.024 µg/mL (≈ 0.0334 µM)
- MIC [13]: 0.012 µg/mL (≈ 0.0167 µM)
- MIC [14]: 0.024 µg/mL (≈ 0.0334 µM)
- MIC [15]: 0.195 µg/mL (≈ 0.272 µM)
- MIC [16]: 25 µg/mL (≈ 34.8 µM)
- MIC [17]: 25 µg/mL (≈ 34.8 µM)
- MIC [18]: 0.049 µg/mL (≈ 0.0683 µM)
- MIC [19]: 0.097 µg/mL (≈ 0.135 µM)
- MIC [20]: 0.195 µg/mL (≈ 0.272 µM)
- MIC [21]: 0.195 µg/mL (≈ 0.272 µM)
- MIC [22]: 25 µg/mL (≈ 34.8 µM)
- MIC [23]: 0.097 µg/mL (≈ 0.135 µM)
- MIC [24]: 25 µg/mL (≈ 34.8 µM)
- MIC [25]: 0.097 µg/mL (≈ 0.135 µM)
- MIC [26]: 0.024 µg/mL (≈ 0.0334 µM)
- MIC [27]: 0.195 µg/mL (≈ 0.272 µM)
- MIC [28]: 0.012 µg/mL (≈ 0.0167 µM)
- MIC [29]: 0.049 µg/mL (≈ 0.0683 µM)
- MIC [30]: 0.39 µg/mL (≈ 0.543 µM)
- MIC [31]: 25 µg/mL (≈ 34.8 µM)
- MIC [32]: 1.56 µg/mL (≈ 2.17 µM)
- MBC/MIC [33]: 8
- MBC ([33]; Streptococcus pyogenes, ATCC8668, read-out: Minimum bactericidal concentration (MBC)): 0.195 µg/mL (≈ 0.272 µM)
- MBC/MIC [34]: 32
- MBC ([34]; Staphylococcus aureus, ATCC6538, read-out: Minimum bactericidal concentration (MBC)): 6.25 µg/mL (≈ 8.71 µM)
- MBC/MIC [35]: 16
- MBC ([35]; Corynebacterium, LRP24, read-out: Minimum bactericidal concentration (MBC)): 0.195 µg/mL (≈ 0.272 µM)
- MBC/MIC [36]: 4
- MBC ([36]; Streptococcus pneumoniae, ATCC6303, read-out: Minimum bactericidal concentration (MBC)): 0.195 µg/mL (≈ 0.272 µM)
- MBC/MIC [37]: 16
- MBC ([37]; Enterococcus faecalis, read-out: Minimum bactericidal concentration (MBC)): 6.25 µg/mL (≈ 8.71 µM)
